# Measurements taken from patent US20090074740A1, “Use of haptoglobin genotyping in diagnosis and treatment of defective reverse cholesterol transport (RCT)” (priority 2007, published 2009).
# Values joined by “and” are separate entries in the source; they are usually repeats but may differ in a detail not shown here. Equal values may be shown once. “Also recorded” adds a separate entry of the source.
# B1: Haptoglobin: Highly conserved plasma glycoprotein, the major protein that binds free hemoglobin (protein, UniProt P00738 19-406, looked up)
# Haptoglobin: VDSGNDVTDIADDGCPKPPEIAHGYVEHSVRYQCKNYYKLRTEGDGVYTLNDKKQWINKAVGDKLPECEADDGCPKPPEIAHGYVEHSVRYQCKNYYKLRTEGDGVYTLNNEKQWINKAVGDKLPECEAVCGKPKNPANPVQRILGGHLDAKGSFPWQAKMVSHHNLTTGATLINEQWLLTTAKNLFLNHSENATAKDIAPTLTLYVGKKQLVEIEKVVLHPNYSQVDIGLIKLKQKVSVNERVMPICLPSKDYAEVGRVGYVSGWGRNANFKFTDHLKYVMLPVADQDQCIRHYEGSTVPEKKTPKSPVGVQPILNEHTFCAGMSKYQEDTCYGDAGSAFAVHDLEEDTWYATGILSFDKSCAVAEYGVYVKVTSIQDWVQKTIAEN
# Legend:
# [1] = per 1 mg, National Formulary; cited from earlier work
# HDL associated lipids = assay: Measurement of HDL-associated lipid peroxides; assay type: biochemical, human; conditions: Hb 1 umol/L, 100 ug HDL
# Protocol: Measurement of HDL-Associated Lipid Peroxides. Glycosylated or nonglycosylated Hb (1 umol/L) was incubated with 100 ug of HDL and 20 umol/L ascorbic acid in PBS with or without Hp1-1 or Hp2-2 (equimolar to Hb) for 3 hours at 37° C. Lipid peroxides were measured as previously described.
# J774 macrophage cells = assay: HDL-mediated cholesterol efflux from J774 cells incubated with purified HDL, native or glycated Hb and Hp; assay type: cell-based, murine; conditions: efflux with purified HDL taken as 100%; 0.8 umol/L; 3-hour incubation
# Protocol: Cell Culture. J774 A.1 murine macrophage cells were purchased from the American Type Culture Collection (Manassas, Va.) and grown in DMEM supplemented with 5% FBS.
# Cholesterol Efflux From Macrophages. Murine J774 cells (1×10^6/mL) were plated in 24-well plates for 48 hours, then washed and incubated in DMEM without serum containing ^3H-cholesterol (2 uCi/mL) for 1 hour. Cells were washed to remove unincorporated label and then incubated in 1 mL of DMEM supplemented with: (1) nothing (negative control); (2) purified HDL (100 ug/mL protein) (positive control); or (3) 30 uL of serum from individuals with or without DM with the different Hp genotypes. In studies using purified Hp and Hb rather than serum, the cells were incubated with purified HDL ([…] protein) with different combinations of native Hb, glycated Hb, Hp1-1, and Hp2-2 (all at 0.8 umol/L).
# After a 3-hour incubation at 37° C. to permit efflux of ^3H-cholesterol from the cells into the medium, 500 uL of the medium was collected, the cells washed with PBS, and 0.1 N NaOH added to the cells. Cellular and medium ^3H-cholesterol were determined by liquid scintillation counting (LSC). The percentage of cholesterol efflux was calculated as the ratio of total counts per minute in the medium divided by the total counts per minute in the medium and in the cells. HDL-mediated cholesterol efflux (resulting from purified HDL or HDL found in the serum) was calculated after subtraction of the nonspecific efflux obtained in cells incubated in the absence of purified HDL or serum. Results reported for efflux elicited by serum samples are normalized for the serum HDL concentration derived as (measured efflux)(measured HDL in mg/dL)/50.
# [2] = ICARE study: vitamin E versus placebo in Hp 2-2 Type II DM individuals (MI, stroke, CVD death); assay type: in vivo, human
# Source text: The study protocol of the ICARE study involves the following: participants were drawn from 47 primary health clinics of the Clalit Health Services in the northern sector of Israel. Patients were eligible for the study if they had Type II DM and were 55 years of age or older. […] These Hp 2-2 individuals were randomly assigned to treatment with either vitamin E or placebo. The major study outcomes (MI, stroke, CVD death) were identified prospectively in this population over an 18 month period. A preplanned secondary analysis of ICARE was to assess the ability of vitamin E therapy to influence outcomes in those ICARE participants who were also taking statins. Statin use as prospectively defined in ICARE was based on the use of statins by the participant in at least eight of the twelve months preceding enrollment of the participant in the study. The decision to use statins for a particular participant was under the discretion of the patient's primary care physician and was in no way influenced by the patient's participation in the ICARE study.
# Robust clinical data has shown that individuals homozygous for the Hp 2 allele (Hp 2-2 genotype), 40% of DM individuals, have an up to 500% increased risk of CVD (21-24). A vast amount of basic science, animal and epidemiological data has provided the logic for targeting vitamin E administration specifically to DM individuals with the Hp 2-2 genotype. In the ICARE study (Israel CArdiovascular events Reduction with vitamin E (ClinicalTrials.gov# NCT00220831)) a prospective randomized placebo controlled trial of vitamin E therapy in DM individuals with the Hp 2-2 genotype, is was shown that vitamin E therapy results in a 50% reduction in CVD events. However, only about half of the Hp 2-2 DM participants in ICARE received statin therapy.
# [3] = Glucose control and lipid profile in Hp 2-2 DM mice given vitamin E; assay type: in vivo; conditions: 40 mg/kg/day
# Source text: (§1) Hp transgenic mice and veneration of DM. All protocols were approved by the Animal Care and Use Committee of the Technion. […]. The characterization and generation of Hp 1 and Hp 2 mice in a C57B1/6 genetic background has previously been described in detail. Briefly, the murine Hp 1 allele is the wild type murine Hp allele. The Hp 2 allele exists only in man and a murine Hp 2 allele was genetically engineered in vitro and its insertion targeted at the Hp locus by homologous recombination. […] Diabetes was generated in these mice at 8 weeks of age using a low dose streptozotocin protocol (NIH Funded Consortium on Animal Models of Diabetic Complications protocol available on the consortium web site www.amdcc.org) and confirmed by measuring plasma glucose. Mice were diabetic for at least 1 month prior to analysis.
# (§2) Vitamin E (racemic, alpha-tocopherol acetate, Merck) was administered to a subset of the Hp 2-2 DM mice at a dose of 40 mg/kg/day beginning three weeks after the induction of DM.
# J774 macrophages = assay: Cholesterol efflux from J774 macrophages elicited by serum from Hp 2-2 DM mice treated with vitamin E; assay type: in vivo; conditions: 40 mg/kg/day beginning three weeks after induction of DM, serum on J774 cells
# Source text: as §1, §2
molecule,measurement,setting,value
Cc1c(C)c2c(c(C)c1O)CC[C@@](C)(CCC[C@H](C)CCC[C@H](C)CCCC(C)C)O2 [RRR-.alpha-tocopherol],specific activity of 1 mg,[1],1.49 IU
native Hb: Native hemoglobin isolated from fresh human blood,increase in HDL-associated lipid peroxides,HDL associated lipids; 3 hours,no increase
same,effect on HDL-mediated efflux of 3H-cholesterol,J774 macrophage cells,did not cause any reduction; also recorded: no effect
CC(=O)Oc1c(C)c(C)c2c(c1C)CCC(C)(CCCC(C)CCCC(C)CCCC(C)C)O2 (racemic) [all-rac-α-tocopherol acetate],specific activity of 1 mg,[1],1.00 IU
"CC(=O)Oc1c(C)c(C)c2c(c1C)CCC(C)(CCC[C@H](C)CCC[C@H](C)CCCC(C)C)O2 (mixture of isomers) [vitamin E, alpha-tocopherol acetate]",reduction in CVD events,"[2]; DM individuals with the Hp 2-2 genotype, ICARE overall",50%
same,"event rate (MI, stroke, CVD death)","[2]; Hp 2-2 DM individuals taking statins in at least eight of the twelve months before enrollment, 18 month period",1.3%
same,"event rate (MI, stroke, CVD death)",[2]; Hp 2-2 DM individuals taking statins in at least one of the twelve months before enrollment,1.7%
same,hazard ratio [HR] versus placebo,"[2]; Hp 2-2 DM individuals taking statins, 95% CI 0.15-0.83",0.31
same,effect on glucose control,[3],no effect
same,effect on the lipid profile,[3],no effect
same,effect on the impairment in cholesterol efflux produced by DM in Hp 2 mice,J774 macrophages,prevented; also recorded: prevent the impairment in efflux
same,effect on the impairment in cholesterol efflux produced by DM in Hp 2 mice,J774 macrophages; listed as Vitamin E,prevent the impairment in efflux
glycated Hb: Human hemoglobin glycated in vitro using glycolaldehyde,increase in HDL-associated lipid peroxides,"HDL associated lipids; 20 umol/L ascorbic acid, 3 hours at 37 C, mean of 2 independent experiments",142.3 nmol of lipid peroxide per milligram of HDL
same,reduction in HDL-mediated cholesterol efflux,J774 macrophage cells,35% and 34±3%
Cc1c(C)c2c(c(C)c1O)CCC(C)(CCCC(C)CCCC(C)CCCC(C)C)O2 (racemic) [all-rac-.alpha-tocopherol],specific activity of 1 mg,[1],1.10 IU
CC(=O)Oc1c(C)c(C)c2c(c1C)CC[C@@](C)(CCC[C@H](C)CCC[C@H](C)CCCC(C)C)O2 [RRR-.alpha-tocopherol acetate],specific activity of 1 mg,[1],1.36 IU
B1,effect on HDL-mediated efflux of 3H-cholesterol,J774 macrophage cells,no effect
